Measurements reported in patent publication US20230203095A1, “BIOLOGICAL PEPTIDE FOR TREATING LUNG DISEASES AND APPLICATION THEREOF” (SHANGHAI INSTITUTE OF PHARMACEUTICAL INDUSTRY CO., LTD., priority 2019, published 2023).
Where “and” joins values, the source holds several entries; their conditions need not be identical. Equal entries are not always repeated. Where two headings read alike, the source gives them in different places. Peptide text beside a SMILES is read from it. * marks the point of attachment. X1 = CC(=O)N[C@H]1C(*)O[C@H](CO)[C@@H](O)[C@@H]1O

Key:
COPD model rats = assay: Lung function (200 ms pulmonary ventilation) in smoking + LPS COPD model rats; format: in vivo, SD rats; settings: 5 mg/kg body weight/day, aerosol, once a day for 4 weeks
[1] = system: OVA-induced asthma model mice; assay: Lung pathology (H&E) of OVA-induced asthma model mice; format: in vivo, BALB/c mice; settings: after 28 days
Method: (§1) The first batch: mice were divided into groups, 10 mice in each group, namely: blank control group (normal saline), model group (OVA, 20 ug/mouse), SP peptide group (administered dose of 175 µg/kg body weight/day, 350 µg/kg body weight/day, respectively), SIPI-D00 peptide group (administered dose of 175 µg/kg body weight/day, 350 µg/kg body weight/day), and dexamethasone group (administered dose of 2 mg/kg body weight/day).
(§2) Mice in the model group, SP peptide group, SIPI-D00 peptide group and dexamethasone group were sensitized by intraperitoneal injection of OVA (20 µg OVA/mice) on day 0, 7, and 14, and challenged by aerosol administration of OVA (once a day for 5 consecutive days) on day 21-25 to construct asthmatic model animals. Mice in the model group were given normal saline on days 21-28; mice in different doses of SP peptide group and SIPI-D00 peptide group were injected subcutaneously with different doses of SP and SIPI-D00 on days 19-28; mice in dexamethasone group were injected intraperitoneally with 2 mg/kg/day dexamethasone on days 21-28. At the same time, 10 mice in the blank control group were fed normally from day 0 to day 28 without any treatment, and were given normal saline as a blank control.
After 28 days, the mouse lung tissue was taken out, fixed in 4% formaldehyde, embedded in paraffin, sectioned, and stained with H&E for pathological observation.
as §1, with “ug/mice), and” for “ug/mouse),”, “SIPI-G5” for “SIPI-D00”, “weight/day),” for “weight/day), and”
(§3) At the same time, 10 mice in the blank control group were fed normally from day 0 to day 28 without any treatment, and were given normal saline as a blank control.

[2] = system: OVA-induced asthma model mice; assay: Lung function (inspiratory airway resistance, lung compliance) in OVA-induced allergic asthma model mice; format: in vivo, BALB/c mice; settings: for Inspiratory airway resistance / Lung compliance: 2 mg/kg/day i.p., n=10
Method: The second batch: mice were divided into groups, 10 mice in each group, namely: blank control group (normal saline), model group (OVA, dose of 20 ug/mouse), SP peptide group (administered dose of 87.5 µg/kg body weight/ day, 175 µg/kg body weight/day, 350 µg/kg body weight/day, respectively), SIPI-D00 peptide group (administered dose of 87.5 µg/kg body weight/day, 175 µg/kg body weight/day, 350 µg/kg body weight/day), and Dexamethasone group (administered dose of 2 mg/kg body weight/day).
as §2
On the 28th day, the mice were anesthetized with tracheal intubation and jugular vein intubation, and the inspiratory airway resistance and lung compliance were measured in each group of animals. Each animal was given fold increasing amounts of methacholine via the jugular vein: 0.025 mg/kg, 0.05 mg/kg, 0.1 mg/kg, 0.2 mg/kg. After each dose was given, the lung compliance curve was recorded continuously for 5 minutes, and the inspiratory airway resistance and lung compliance were calculated. […]
as §3

serum IgE = assay: Serum IgE level in OVA-induced allergic asthma model mice; format: in vivo, BALB/c mice
Method: as §1
OVA for sensitization was dissolved in sterile PBS solution at a final concentration of 0.2 mg/mL, then an equal volume of aluminum hydroxide adjuvant was added. After shaking for 30 minutes, each mouse was intraperitoneally injected with 0.2 mL (20 µg OVA per mouse).
2% OVA solution was prepared in sterile PBS. The 2% OVA was nebulized with a nebulizer, and the mice were placed in the nebulizer inhalation box for 30 minutes per day.
According to the dosage, SP peptide and SIPI-D00 were dissolved in normal saline respectively, and administered by subcutaneous administration on the back according to the body weight of the animals.
as §2
After 28 days, blood was collected from the inner canthus of the mouse, and the serum was collected, and the IgE level in the serum was measured with an ELISA kit. […]
as §3

[3] = Stability of each 7-peptide compound in rat whole blood; format: in vitro ADME; settings: for stability in whole blood: compared with SP peptide; for recovery: rat whole blood, 37° C., 1000 ng/mL, read-out: Recovery rate (%) M±SD
Method: Preparation of the test product: SP and SIPI-D00 were dissolved and diluted with an appropriate amount of 50% acetonitrile water containing 0.1% formic acid to obtain a working solution with a concentration of 200 µg/mL.
• 1) Fresh rat whole blood was added to the EP tube, and shaken gently to mix well; • 2) The EP tube was pre-incubated in a 37° C. water bath for 5 minutes; • 3) Each compound was added to start the reaction and continued to incubate at 37° C.; • 4) 50 µL sample was taken from the sample tube at 0, 2 min, 5 min, 10 min, 30 min, and 60 min, respectively, into the stop tube, 50 µL of ice-cold 7% perchloric acid was added, and shaken to stop the reaction; • 5) Sample was centrifuged at 13000 r/min for 10 min, 75 µL supernatant was aspirated, 60 µL1.25% ammonia water was added and mixed well. After filtered with […] microporous membrane, 20 µL sample was taken for LC-MS/MS analysis.

[4] = Plasma drug concentrations and pharmacokinetics after a single subcutaneous injection of SP peptide or SIPI-D00 peptide in SD rats; format: in vivo
Method: Route: Single back subcutaneous injection;
Dosage of the drug: SP peptide and SIPI-D00 peptide were prepared into 3.33 mg/mL solution with normal saline, the dosage of SP peptide by back subcutaneous injection was 10 mg/kg body weight, and the dosage of SIPI-D00 peptide by back subcutaneous injection was 5 mg/kg body weight. […]

[5] = system: ConA-stimulated mouse splenocytes; assay: Secretion of IL-4 from mouse splenocytes stimulated by ConA (ELISA); format: cell-based, BALB/C mice; settings: for IL-4 levels of polypeptides: ConA 5 µg/mL, 24 h
Method: (§4) Three BALB/C mice were sacrificed by cervical dislocation after anesthesia. Then mice were immersed in 75% ethanol for 5 minutes. After dissection and spleen extraction, spleen lymphocytes were prepared. […] Different concentrations of test substances were added to each well, and duplicate wells were set for each concentration, and the final concentration of ConA was 5 µg/mL. The plate was incubated in a 37° C. 5% CO2 incubator for 24 h, the drug-containing cell suspension was aspirated from each well, then centrifuged at 200 g for 15 min at 4° C. The supernatant was taken, and mouse IL-4 Elisa kit was used to detect IL- 4 content.
as §4, with “each concentration was” for “duplicate wells were”, “up as triple wells,” for “for each concentration,”, “kit (mouse IL-4 Elisa kit)” for “kit”

For CCCC1O[C@@H]2C[C@H]3[C@@H]4CCC5=CC(=O)C=C[C@]5(C)[C@H]4[C@@H](O)C[C@]3(C)[C@]2(C(=O)CO)O1 (stereo partly shown) [Budesonide, budesonide], the “200 ms pulmonary ventilation” value (COPD model rats) was 77.17 ± 11.20 mL and the “Percentage of 200 ms pulmonary ventilation (%)” value (COPD model rats) was 465.8±77.8 %.

With C[C@@H]1C[C@H]2[C@@H]3CCC4=CC(=O)C=C[C@]4(C)[C@@]3(F)[C@@H](O)C[C@]2(C)[C@@]1(O)C(=O)COP(=O)([O-])[O-].[Na+].[Na+] [Dexamethasone, dexamethasone sodium phosphate, reference compound] the “lung pathology, H&E” value ([1]; positive control group (dexamethasone 2 mg/kg body weight/day)) was “a small amount of inflammatory cell infiltration in the lungs, but the alveolar cavity is seriously damaged”, the Inspiratory airway resistance ([2]; methacholine 0 mg/kg) was 1.00±0.00 and the Lung compliance ([2]; methacholine 0 mg/kg) was 1.00±0.00. For the same molecule, the Inspiratory airway resistance ([2]; methacholine 0.025 mg/kg) was 1.06±0.08, the Lung compliance ([2]; methacholine 0.025 mg/kg) was 0.97±0.10 and the Inspiratory airway resistance ([2]; methacholine 0.05 mg/kg) was 1.15±0.14. The Lung compliance ([2]; methacholine 0.05 mg/kg) was 0.89±0.14, the Inspiratory airway resistance ([2]; methacholine 0.1 mg/kg) was 1.20±0.21 and the Lung compliance ([2]; methacholine 0.1 mg/kg) was 0.87±0.22. For the same molecule, the Inspiratory airway resistance ([2]; methacholine 0.2 mg/kg) was 1.23±0.17, the Lung compliance ([2]; methacholine 0.2 mg/kg) was 0.83±0.14 and the “inspiratory phase resistance (in words)” value ([2]; compared with the model group) was “significantly reduced”. For the same molecule, the “lung compliance (in words)” value ([2]; compared with the model group) was “significantly increased” and the “Serum IgE level (OD450)” value (serum IgE; 2 mg/kg/day intraperitoneal, days 21-28, n=10) was 0.285 ± 0.041 OD450.

In the case of CC(=O)N[C@H]1C(OC[C@H](NC(=O)[C@@H](NC(=O)[C@H](Cc2ccc(O)cc2)NC(=O)[C@@H](NC(=O)[C@H](CCC(N)=O)NC(=O)CN)[C@@H](C)OC2O[C@H](CO)[C@@H](O)[C@H](O)[C@H]2NC(C)=O)[C@@H](C)OC2O[C@H](CO)[C@@H](O)[C@H](O)[C@H]2NC(C)=O)C(=O)NCC(=O)O)O[C@H](CO)[C@@H](O)[C@@H]1O (stereo partly shown) [SIPI-G4, GQT(Glc)YT(Glc)S(Glc)G] (H-GQT(X1)YT(X1)S(X1)G-OH), the “stability in whole blood” value [3] is reported as “significantly higher than that of SP peptide”, the recovery ([3]; incubation time 0 min) is reported as 100% and the recovery ([3]; incubation time 2 min) is reported as 94.6 ± 8.5%. The recovery ([3]; incubation time 5 min) was 87.3 ± 5.6%, the recovery ([3]; incubation time 10 min) was 87.2 ± 5.9% and the recovery ([3]; incubation time 30 min) was 77.7 ± 8.1%. It also gave a recovery ([3]; incubation time 60 min) of 77.1 ± 2.3%.

In the case of CC(=O)N[C@H]1C(O[C@H](C)[C@H](NC(=O)[C@H](CCC(N)=O)NC(=O)CN)C(=O)N[C@@H](Cc2ccc(O)cc2)C(=O)N[C@H](C(=O)N[C@@H](CO)C(=O)NCC(=O)O)[C@@H](C)O)O[C@H](CO)[C@@H](O)[C@@H]1O (stereo partly shown) [SIPI-G6, GQT(Glc)YTSG] (H-GQT(X1)YTSG-OH), the “stability in whole blood” value [3] is reported as “significantly higher than that of SP peptide”, the recovery ([3]; incubation time 0 min) is reported as 100% and the recovery ([3]; incubation time 2 min) is reported as 86.1 ± 1.8%. It also gave a recovery ([3]; incubation time 5 min) of 81.3 ± 8.3%, a recovery ([3]; incubation time 10 min) of 73.4 ± 2.6% and a recovery ([3]; incubation time 30 min) of 59.7 ± 8.8%. The recovery ([3]; incubation time 60 min) was 51.1 ± 4.9%.

With CC(=O)N[C@H]1C(O[C@H](C)[C@H](NC(=O)[C@H](Cc2ccc(O)cc2)NC(=O)[C@@H](NC(=O)[C@H](CCC(N)=O)NC(=O)CN)[C@@H](C)OC2O[C@H](CO)[C@@H](O)[C@H](O)[C@H]2NC(C)=O)C(=O)N[C@@H](CO)C(=O)NCC(=O)O)O[C@H](CO)[C@@H](O)[C@@H]1O (stereo partly shown) [SIPI-G8, GQT(Glc)YT(Glc)SG] (H-GQT(X1)YT(X1)SG-OH) the “stability in whole blood” value [3] was “significantly higher than that of SP peptide”, the recovery ([3]; incubation time 0 min) was 100% and the recovery ([3]; incubation time 2 min) was 83.6 ± 8.1%. The recovery ([3]; incubation time 5 min) was 83.2 ± 6.1%, the recovery ([3]; incubation time 10 min) was 80.7 ± 2.3% and the recovery ([3]; incubation time 30 min) was 71.2 ± 6.3%. For the same molecule, the recovery ([3]; incubation time 60 min) was 58.6 ± 4.8%.

Molecule “H-GQTYTSG-OH [SP, GQTYTSG, reference compound]” has a Plasma concentration ([4]; SP peptide 10 mg/kg s.c., SD rats, time 0 min, parallels 1-4) of 0 ng/mL, a level at 0.5 min ([4]; male, SD, rat, plasma, sc, 10 mg/kg, SP peptide 10 mg/kg s.c., SD rats, time 0.5 min, parallels 1-4, read-out: Plasma concentration) of 74.2 ng/mL and an AUC(0-inf) ([4]; rat, in vivo, sc, 10 mg/kg) of 11.9 ng·h/mL. The AUC(0-t) ([4]; rat, in vivo, sc, 10 mg/kg) was 11.9 ng·h/mL, the Cmax ([4]; rat, in vivo, sc, 10 mg/kg) was 210 ± 21.6 ng/mL and the half-life ([4]; rat, in vivo, sc, 10 mg/kg) was 8.65 ± 1.79 min. For the same molecule, the “lung pathology, H&E” value ([1]; high-dose group (350 µg/kg body weight/day)) was “some inflammatory cells are found in the airway mucosa”, the “lung pathology, H&E” value ([1]; low-dose group (175 µg/kg body weight/day)) was “some inflammatory cells are found in the airway mucosa” and the “Inhibitory rate of polypeptide on IL-4 secretion” value (from here on “Inhibitory rate of polypeptide”) ([5]; peptide concentration 1 µg/mL) was 33.90%. The “IL-4 levels of polypeptides” value ([5]; peptide concentration 1 µg/mL) was 14.28 ± 0.51 pg/mL, the “Inhibitory rate of polypeptide” value ([5]; peptide concentration 3 µg/mL) was 42.51% and the “IL-4 levels of polypeptides” value ([5]; peptide concentration 3 µg/mL) was 12.42 ± 0.34 pg/mL. For the same molecule, the “Inhibitory rate of polypeptide” value ([5]; peptide concentration 10 µg/mL) was 50.21%, the “IL-4 levels of polypeptides” value ([5]; peptide concentration 10 µg/mL) was 10.76 ± 2.55 pg/mL and the “Inhibitory rate of polypeptide” value ([5]; peptide concentration 30 µg/mL) was 52.15%. For the same molecule, the “IL-4 levels of polypeptides” value ([5]; peptide concentration 30 µg/mL) was 10.34 ± 0.27 pg/mL, the recovery ([3]; incubation time 0 min) was 100% and the recovery ([3]; incubation time 2 min) was 64.1 ± 7.6%. The recovery ([3]; incubation time 5 min) was 41.3 ± 6.8%, the recovery ([3]; incubation time 10 min) was 28.5 ± 0.9% and the recovery ([3]; incubation time 30 min) was 4.93 ± 0.7%. For the same molecule, the recovery ([3]; incubation time 60 min) was 1.67 ± 0.5%, the “Serum IgE level (OD450)” value (serum IgE; 175 ug/kg/day subcutaneous, days 19-28, n=10) was 0.634 ± 0.078 OD450 and 0.634 + OD450 and the “Serum IgE level (OD450)” value (serum IgE; 350 ug/kg/day subcutaneous, days 19-28, n=10) was 0.595 ± 0.041 OD450 and 0.595 + OD450.
